This is an account of results in ChEMBL document CHEMBL3991601, “The target landscape of clinical kinase drugs” (Science, 2017).

In assay [1] the target is Tyrosine-protein kinase ABL2 (Homo sapiens, UniProt P42684).
Assay [2] has as its target T1, Ferrochelatase, mitochondrial (Homo sapiens, UniProt P22830).
T1 sequence (P22830 whole entry): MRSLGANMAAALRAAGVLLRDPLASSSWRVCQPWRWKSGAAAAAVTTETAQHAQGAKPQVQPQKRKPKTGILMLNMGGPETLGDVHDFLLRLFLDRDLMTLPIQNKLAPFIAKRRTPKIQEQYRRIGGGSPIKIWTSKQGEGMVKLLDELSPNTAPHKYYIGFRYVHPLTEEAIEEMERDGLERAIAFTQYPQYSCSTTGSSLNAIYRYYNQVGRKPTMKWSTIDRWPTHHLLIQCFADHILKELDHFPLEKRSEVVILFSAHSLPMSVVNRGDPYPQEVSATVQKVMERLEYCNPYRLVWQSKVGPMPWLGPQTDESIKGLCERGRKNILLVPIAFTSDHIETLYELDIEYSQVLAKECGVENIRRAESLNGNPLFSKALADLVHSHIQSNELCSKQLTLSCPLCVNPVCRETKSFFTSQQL

Assay [3] addresses T2, Dual specificity mitogen-activated protein kinase kinase 6 (Homo sapiens, UniProt P52564).
T2 sequence (P52564 whole entry): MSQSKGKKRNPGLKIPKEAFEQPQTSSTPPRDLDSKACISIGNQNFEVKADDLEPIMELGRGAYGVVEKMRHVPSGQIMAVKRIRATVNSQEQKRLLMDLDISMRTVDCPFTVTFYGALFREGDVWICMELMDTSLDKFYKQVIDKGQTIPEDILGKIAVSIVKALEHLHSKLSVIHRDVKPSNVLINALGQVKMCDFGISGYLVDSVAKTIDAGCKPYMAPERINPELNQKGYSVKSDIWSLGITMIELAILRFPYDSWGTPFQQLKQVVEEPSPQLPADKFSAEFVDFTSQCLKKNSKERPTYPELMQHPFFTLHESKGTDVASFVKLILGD

Assay [4] has as its target T3, Discoidin domain-containing receptor 2 (Homo sapiens, UniProt Q16832).
T3 sequence (Q16832 whole entry): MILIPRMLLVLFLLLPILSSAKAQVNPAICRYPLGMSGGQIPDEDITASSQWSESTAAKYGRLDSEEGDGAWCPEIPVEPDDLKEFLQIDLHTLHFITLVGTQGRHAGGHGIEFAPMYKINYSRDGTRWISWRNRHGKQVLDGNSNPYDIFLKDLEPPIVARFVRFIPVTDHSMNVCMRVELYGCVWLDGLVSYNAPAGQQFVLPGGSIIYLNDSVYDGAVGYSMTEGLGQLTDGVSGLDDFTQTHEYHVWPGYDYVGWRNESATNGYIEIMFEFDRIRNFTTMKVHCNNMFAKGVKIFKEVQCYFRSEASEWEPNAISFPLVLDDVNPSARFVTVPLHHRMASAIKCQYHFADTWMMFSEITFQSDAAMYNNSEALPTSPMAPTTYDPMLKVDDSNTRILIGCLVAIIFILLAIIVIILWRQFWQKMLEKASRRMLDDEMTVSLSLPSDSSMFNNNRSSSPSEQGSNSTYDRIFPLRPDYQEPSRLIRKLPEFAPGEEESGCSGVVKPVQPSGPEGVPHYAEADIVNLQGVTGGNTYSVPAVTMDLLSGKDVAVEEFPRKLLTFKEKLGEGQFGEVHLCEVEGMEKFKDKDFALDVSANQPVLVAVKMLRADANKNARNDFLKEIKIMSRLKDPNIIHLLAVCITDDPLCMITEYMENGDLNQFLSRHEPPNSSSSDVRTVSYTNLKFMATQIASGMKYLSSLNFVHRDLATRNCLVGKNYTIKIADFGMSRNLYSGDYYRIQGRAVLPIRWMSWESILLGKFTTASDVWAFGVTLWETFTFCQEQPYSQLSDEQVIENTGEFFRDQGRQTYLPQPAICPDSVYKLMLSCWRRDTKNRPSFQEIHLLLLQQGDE

Assay [5] deals with Mitogen-activated protein kinase 8 (Homo sapiens, UniProt P45983).
Assay [6] concerns the target DNA topoisomerase 2-alpha (Homo sapiens, UniProt P11388).
The target in the next assay is T4, Ephrin type-B receptor 4 (Homo sapiens, UniProt P54760).
T4 sequence (P54760 whole entry): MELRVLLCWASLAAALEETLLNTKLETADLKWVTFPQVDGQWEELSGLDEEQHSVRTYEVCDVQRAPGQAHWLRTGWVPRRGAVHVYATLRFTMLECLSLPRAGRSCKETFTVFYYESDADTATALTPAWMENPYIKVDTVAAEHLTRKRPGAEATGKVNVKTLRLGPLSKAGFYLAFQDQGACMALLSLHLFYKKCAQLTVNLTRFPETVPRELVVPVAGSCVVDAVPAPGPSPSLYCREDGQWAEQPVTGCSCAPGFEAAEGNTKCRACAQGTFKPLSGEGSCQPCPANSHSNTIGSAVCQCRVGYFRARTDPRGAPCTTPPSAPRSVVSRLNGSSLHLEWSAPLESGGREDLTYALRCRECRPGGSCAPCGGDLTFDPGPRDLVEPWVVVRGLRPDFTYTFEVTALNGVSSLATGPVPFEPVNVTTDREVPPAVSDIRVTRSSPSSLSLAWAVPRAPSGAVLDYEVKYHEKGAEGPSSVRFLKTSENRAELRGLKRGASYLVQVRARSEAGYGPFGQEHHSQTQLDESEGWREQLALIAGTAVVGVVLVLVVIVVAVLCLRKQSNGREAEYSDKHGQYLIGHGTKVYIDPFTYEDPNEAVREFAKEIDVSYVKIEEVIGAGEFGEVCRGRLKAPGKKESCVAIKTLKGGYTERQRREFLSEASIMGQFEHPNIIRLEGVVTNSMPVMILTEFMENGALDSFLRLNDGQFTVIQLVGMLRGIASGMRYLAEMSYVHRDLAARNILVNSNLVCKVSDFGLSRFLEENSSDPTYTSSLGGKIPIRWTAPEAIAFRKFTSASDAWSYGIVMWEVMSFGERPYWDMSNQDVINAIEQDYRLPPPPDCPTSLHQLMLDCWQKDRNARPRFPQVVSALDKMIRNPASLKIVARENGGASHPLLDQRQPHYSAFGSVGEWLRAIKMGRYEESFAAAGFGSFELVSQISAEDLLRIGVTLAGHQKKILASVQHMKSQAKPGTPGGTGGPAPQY

In assay [7] the target is Protein kinase C delta type (Homo sapiens, UniProt Q05655).
Sequence of Protein kinase C delta type (Q05655 whole entry): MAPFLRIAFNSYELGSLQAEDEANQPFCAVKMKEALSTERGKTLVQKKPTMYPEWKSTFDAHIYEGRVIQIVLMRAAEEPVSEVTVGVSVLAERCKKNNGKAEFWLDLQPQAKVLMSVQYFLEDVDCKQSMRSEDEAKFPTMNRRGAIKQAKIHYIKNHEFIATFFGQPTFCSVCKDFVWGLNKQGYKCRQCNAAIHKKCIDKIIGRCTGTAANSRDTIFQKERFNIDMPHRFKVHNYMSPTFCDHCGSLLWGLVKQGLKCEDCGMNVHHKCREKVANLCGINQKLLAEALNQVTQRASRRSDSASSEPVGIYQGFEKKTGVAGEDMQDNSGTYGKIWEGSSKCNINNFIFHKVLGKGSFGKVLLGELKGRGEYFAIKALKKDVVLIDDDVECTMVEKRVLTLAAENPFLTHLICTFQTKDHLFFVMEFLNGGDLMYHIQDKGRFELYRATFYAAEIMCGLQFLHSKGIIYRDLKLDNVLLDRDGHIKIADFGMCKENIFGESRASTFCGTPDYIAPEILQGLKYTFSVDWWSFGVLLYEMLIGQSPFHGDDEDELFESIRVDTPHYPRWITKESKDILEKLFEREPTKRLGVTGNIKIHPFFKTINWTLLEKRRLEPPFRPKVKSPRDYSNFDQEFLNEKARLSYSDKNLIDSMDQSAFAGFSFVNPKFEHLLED
The target in assay [8] is Serine/threonine-protein kinase/endoribonuclease IRE2 (Homo sapiens, UniProt Q76MJ5).
Sequence of Serine/threonine-protein kinase/endoribonuclease IRE2 (Q76MJ5 whole entry): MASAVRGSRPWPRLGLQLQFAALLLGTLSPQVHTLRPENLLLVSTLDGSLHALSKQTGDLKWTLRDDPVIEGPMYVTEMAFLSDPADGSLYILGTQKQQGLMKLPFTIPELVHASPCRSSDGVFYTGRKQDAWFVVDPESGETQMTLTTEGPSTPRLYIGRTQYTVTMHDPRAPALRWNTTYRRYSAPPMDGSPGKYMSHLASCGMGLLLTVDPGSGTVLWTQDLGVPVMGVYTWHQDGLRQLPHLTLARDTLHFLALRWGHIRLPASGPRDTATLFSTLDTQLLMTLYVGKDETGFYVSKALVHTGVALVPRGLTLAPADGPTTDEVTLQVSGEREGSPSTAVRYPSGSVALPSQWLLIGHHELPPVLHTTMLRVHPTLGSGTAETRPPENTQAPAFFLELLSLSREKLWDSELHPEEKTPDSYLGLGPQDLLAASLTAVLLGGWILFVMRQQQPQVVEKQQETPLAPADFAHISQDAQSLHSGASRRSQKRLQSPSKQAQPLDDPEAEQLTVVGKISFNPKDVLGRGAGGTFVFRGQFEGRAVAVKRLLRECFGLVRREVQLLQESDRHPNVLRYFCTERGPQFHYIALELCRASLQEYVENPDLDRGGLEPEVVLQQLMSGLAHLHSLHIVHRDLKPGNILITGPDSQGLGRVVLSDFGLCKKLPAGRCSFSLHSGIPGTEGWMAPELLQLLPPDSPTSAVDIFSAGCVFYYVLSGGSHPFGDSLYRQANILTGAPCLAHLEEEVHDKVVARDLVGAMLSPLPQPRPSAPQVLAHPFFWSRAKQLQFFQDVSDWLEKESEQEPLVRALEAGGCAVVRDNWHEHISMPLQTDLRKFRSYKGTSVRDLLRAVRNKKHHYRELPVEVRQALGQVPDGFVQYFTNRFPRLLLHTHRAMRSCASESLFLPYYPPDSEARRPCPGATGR
In assay [9] the target is Receptor-interacting serine/threonine-protein kinase 3 (Homo sapiens, UniProt Q9Y572).
Sequence of Receptor-interacting serine/threonine-protein kinase 3 (Q9Y572 whole entry): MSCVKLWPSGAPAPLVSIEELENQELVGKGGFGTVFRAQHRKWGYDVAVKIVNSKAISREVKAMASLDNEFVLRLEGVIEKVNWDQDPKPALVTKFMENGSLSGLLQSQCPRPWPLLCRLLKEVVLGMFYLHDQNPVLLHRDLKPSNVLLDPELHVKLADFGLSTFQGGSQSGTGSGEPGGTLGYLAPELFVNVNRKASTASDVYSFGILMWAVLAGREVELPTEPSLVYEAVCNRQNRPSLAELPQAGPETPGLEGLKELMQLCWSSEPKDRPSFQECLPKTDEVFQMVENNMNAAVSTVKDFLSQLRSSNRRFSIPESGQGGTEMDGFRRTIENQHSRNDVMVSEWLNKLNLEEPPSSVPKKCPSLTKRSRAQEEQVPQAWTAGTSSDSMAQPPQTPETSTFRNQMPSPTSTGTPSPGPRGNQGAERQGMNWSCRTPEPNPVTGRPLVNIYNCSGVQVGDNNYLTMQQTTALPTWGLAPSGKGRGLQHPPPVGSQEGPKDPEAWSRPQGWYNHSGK

Active and inactive are the calls of the source. Rule as the data show it, for most assays here: actives have a measured Kd and inactives only a lower limit.
Also: in the data inactive means no Kd found up to 30 µM.

Sequence of DNA topoisomerase 2-alpha (P11388 whole entry): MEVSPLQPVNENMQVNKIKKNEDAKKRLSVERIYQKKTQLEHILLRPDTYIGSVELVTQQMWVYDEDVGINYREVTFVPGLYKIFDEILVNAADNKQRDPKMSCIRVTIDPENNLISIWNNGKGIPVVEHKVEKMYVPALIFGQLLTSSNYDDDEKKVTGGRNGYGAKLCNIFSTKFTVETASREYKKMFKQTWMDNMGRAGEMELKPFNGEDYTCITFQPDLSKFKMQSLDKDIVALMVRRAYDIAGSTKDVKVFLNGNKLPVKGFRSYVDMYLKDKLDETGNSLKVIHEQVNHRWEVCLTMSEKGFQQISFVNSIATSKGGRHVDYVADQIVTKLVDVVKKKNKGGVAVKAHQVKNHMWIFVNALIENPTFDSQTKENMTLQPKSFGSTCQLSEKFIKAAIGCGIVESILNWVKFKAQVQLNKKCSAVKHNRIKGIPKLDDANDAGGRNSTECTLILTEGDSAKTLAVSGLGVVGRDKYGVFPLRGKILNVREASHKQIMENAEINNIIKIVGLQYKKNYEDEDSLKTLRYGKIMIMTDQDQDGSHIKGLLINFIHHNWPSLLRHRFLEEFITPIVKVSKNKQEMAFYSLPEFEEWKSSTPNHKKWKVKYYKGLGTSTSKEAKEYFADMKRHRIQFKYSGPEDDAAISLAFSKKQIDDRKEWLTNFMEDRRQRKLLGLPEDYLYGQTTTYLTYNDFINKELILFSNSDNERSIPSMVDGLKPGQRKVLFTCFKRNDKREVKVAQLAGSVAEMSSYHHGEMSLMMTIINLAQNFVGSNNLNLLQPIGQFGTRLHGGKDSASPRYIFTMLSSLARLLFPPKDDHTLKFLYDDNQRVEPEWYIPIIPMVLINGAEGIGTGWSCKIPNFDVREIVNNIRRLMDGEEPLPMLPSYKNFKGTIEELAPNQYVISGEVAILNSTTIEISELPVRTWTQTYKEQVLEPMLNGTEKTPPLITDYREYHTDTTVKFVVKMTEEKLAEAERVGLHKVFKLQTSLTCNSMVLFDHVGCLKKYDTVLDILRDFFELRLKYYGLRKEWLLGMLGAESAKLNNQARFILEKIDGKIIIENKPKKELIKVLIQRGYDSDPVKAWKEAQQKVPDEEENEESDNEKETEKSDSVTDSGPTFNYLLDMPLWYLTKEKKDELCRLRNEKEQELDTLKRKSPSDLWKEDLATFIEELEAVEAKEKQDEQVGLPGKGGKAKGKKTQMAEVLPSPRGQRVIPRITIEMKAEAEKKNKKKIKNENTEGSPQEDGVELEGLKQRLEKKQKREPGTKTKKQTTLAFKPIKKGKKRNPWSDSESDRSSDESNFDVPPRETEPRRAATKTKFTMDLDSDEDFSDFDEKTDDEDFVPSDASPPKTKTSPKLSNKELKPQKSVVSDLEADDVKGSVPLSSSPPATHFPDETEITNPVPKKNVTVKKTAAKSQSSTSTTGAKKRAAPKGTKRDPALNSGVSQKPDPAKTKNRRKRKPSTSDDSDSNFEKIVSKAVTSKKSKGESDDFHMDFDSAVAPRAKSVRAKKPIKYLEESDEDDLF
Sequence of Tyrosine-protein kinase ABL2 (P42684 whole entry): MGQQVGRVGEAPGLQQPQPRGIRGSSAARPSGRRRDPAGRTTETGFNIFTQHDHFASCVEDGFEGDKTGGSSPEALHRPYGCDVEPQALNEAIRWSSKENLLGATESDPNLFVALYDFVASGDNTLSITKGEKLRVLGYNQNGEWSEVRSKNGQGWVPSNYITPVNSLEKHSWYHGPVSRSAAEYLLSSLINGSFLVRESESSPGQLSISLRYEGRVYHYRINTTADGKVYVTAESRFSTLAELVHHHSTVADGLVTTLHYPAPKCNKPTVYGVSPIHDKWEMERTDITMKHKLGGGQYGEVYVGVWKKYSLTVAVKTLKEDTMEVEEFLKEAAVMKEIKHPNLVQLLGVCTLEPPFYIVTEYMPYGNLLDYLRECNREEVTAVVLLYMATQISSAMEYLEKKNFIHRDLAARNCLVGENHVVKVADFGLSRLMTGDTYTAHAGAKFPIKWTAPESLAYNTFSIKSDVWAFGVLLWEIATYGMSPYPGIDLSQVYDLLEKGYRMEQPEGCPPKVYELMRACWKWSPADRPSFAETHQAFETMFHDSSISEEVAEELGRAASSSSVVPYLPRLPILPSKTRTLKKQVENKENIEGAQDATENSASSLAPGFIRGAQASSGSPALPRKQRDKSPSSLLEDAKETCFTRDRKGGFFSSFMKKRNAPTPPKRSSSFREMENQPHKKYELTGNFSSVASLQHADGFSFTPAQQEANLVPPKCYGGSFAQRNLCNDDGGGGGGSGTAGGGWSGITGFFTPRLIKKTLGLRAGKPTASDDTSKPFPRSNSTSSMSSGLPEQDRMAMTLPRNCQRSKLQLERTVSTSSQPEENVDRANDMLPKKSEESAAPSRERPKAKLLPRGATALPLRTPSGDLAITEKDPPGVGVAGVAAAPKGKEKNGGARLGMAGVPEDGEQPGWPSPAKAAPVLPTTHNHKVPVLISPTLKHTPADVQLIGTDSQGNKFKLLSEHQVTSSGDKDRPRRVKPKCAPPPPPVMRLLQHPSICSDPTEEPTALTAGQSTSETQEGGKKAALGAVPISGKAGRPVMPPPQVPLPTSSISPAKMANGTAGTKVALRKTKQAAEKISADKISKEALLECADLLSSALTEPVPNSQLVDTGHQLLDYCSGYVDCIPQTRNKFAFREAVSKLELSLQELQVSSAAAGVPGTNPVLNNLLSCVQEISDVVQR

For orientation: Kd means the concentration at which binding is half-saturated. On to `CN1CC[C@@H](c2c(O)cc(O)c3c(=O)cc(-c4ccccc4Cl)oc23)[C@@H]1CO`, for which the Kd in assay [1], in assay [2], in [3], in [4], in [5] and in assay [6] was > 30 µM (inactive) throughout. The Kd was > 30 µM (inactive) on Ephrin type-B receptor 4, 2.39 µM (active) in assay [7], > 30 µM (inactive) in assay [8] and > 30 µM (inactive) in [9].

Turning to `N[C@@H]1CCCN(c2c(/C=C3\SC(=O)NC3=O)cccc2-c2ccccc2)C1`, the Kd in assay [1], in assay [2], in [3], in assay [4], in assay [5] and in assay [6] was > 30 µM (inactive) throughout. In addition, the Kd (on Ephrin type-B receptor 4; in assay [7]; in [8]; in assay [9]) was > 30 µM (inactive) each time.

`CCN1CCN(Cc2ccc(-c3cc4c(N[C@H](C)c5ccccc5)ncnc4[nH]3)cc2)CC1` [AEE-788]: the Kd in assay [1] is 14.9 µM (active); in assay [2], > 30 µM (inactive); in assay [3], > 30 µM (inactive); in [4], 28.2 µM (active); in [5] it was > 30 µM (inactive); in [6], > 30 µM (inactive). The Kd at Ephrin type-B receptor 4 was 26.4 µM (active); in assay [7], > 30 µM (inactive); in assay [8], > 30 µM (inactive); in [9], > 30 µM (inactive).

Turning to `O=C(Nc1ccc(-c2ccnc(Nc3ccc(N4CCOCC4)cc3)n2)cc1)C1CCCN1` (stereo not given) [XL-019], the Kd is > 30 µM (inactive) in assay [1]; > 30 µM (inactive) in assay [2]; > 30 µM (inactive) in assay [3]; > 30 µM (inactive) in assay [4]; 0.844 µM (active) in assay [5]; > 30 µM (inactive) in assay [6]. Further, the Kd (on Ephrin type-B receptor 4; in [7]; in [8]; in [9]) was > 30 µM (inactive) each time.

With `CCn1c(=O)c(-c2cc[nH]n2)cc2c(C)nc(N)nc21` [VOXTALISIB], the Kd in assay [1], in assay [2], in [3], in assay [4], in [5] and in assay [6] was > 30 µM (inactive) throughout. Moreover, the Kd (at Ephrin type-B receptor 4; in [7]; in assay [8]; in [9]) was > 30 µM (inactive) throughout.

As for `CNC(=O)c1cc(Oc2ccc(NC(=O)Nc3ccc(Cl)c(C(F)(F)F)c3)c(F)c2)ccn1` [REGORAFENIB], the Kd in assay [1] is > 30 µM (inactive); in [2], > 30 µM (inactive); in assay [3], > 30 µM (inactive); in assay [4], 0.421 µM (active); in assay [5], > 30 µM (inactive); in [6] it was > 30 µM (inactive). Besides, the Kd on Ephrin type-B receptor 4 is > 30 µM (inactive); in assay [7], > 30 µM (inactive); in [8], > 30 µM (inactive); in [9], 0.368 µM (active).

Take `COC(=O)N[C@@H](C)CNc1nccc(-c2cn(C(C)C)nc2-c2cc(Cl)cc(NS(C)(=O)=O)c2F)n1` [ENCORAFENIB]: the Kd in assay [1] was > 30 µM (inactive); in assay [2], > 30 µM (inactive); in assay [3] it was > 30 µM (inactive); in assay [4], > 30 µM (inactive); in assay [5] it was 1.87 µM (active); in assay [6], > 30 µM (inactive). The Kd is > 30 µM (inactive) on Ephrin type-B receptor 4, > 30 µM (inactive) in assay [7], > 30 µM (inactive) in assay [8] and 0.967 µM (active) in [9].

In the case of `Cc1c(F)cc(C(=O)NC2CC2)cc1-c1ccc(C(=O)NCC(C)(C)C)cn1` [LOSMAPIMOD], the Kd in assay [1], in [2], in [3], in assay [4], in assay [5] and in [6] was > 30 µM (inactive) each time. Also, the Kd (on Ephrin type-B receptor 4; in assay [7]; in [8]; in [9]) was > 30 µM (inactive) each time.

For `Cc1cc(-c2cc(O)ccc2Cl)cc2nnc(Nc3ccc(OCCN4CCCC4)cc3)nc12`, the equilibrium dissociation constant (Kd) in [1] is 0.001 µM (active); in assay [2], > 30 µM (inactive); in [3], > 30 µM (inactive); in [4], 0.004 µM (active); in assay [5], > 30 µM (inactive); in assay [6], > 30 µM (inactive). The Kd on Ephrin type-B receptor 4 is 0.0009 µM (active); in assay [7], > 30 µM (inactive); in [8], > 30 µM (inactive); in assay [9], 0.003 µM (active).

On to `C=CC(=O)N1CCC(Oc2cc3c(Nc4ccc(Cl)c(Cl)c4F)ncnc3cc2OC)CC1` [POZIOTINIB], for which the Kd in assay [1], in [2], in assay [3], in [4], in [5] and in assay [6] was > 30 µM (inactive) each time. Besides, the Kd is 0.34 µM (active) at Ephrin type-B receptor 4, > 30 µM (inactive) in assay [7], > 30 µM (inactive) in assay [8] and 0.392 µM (active) in assay [9].
